Laboratory results reported in the NIST ThermoML archive (doi:10.1021/je1003065).

Test: mn = molality of the nth substance listed, in mol/kg
Settings: Liquid, Vibrating tube method

[Br-].[Li+] [lithium bromide] + CCO
Settings | mass density [kg/m3]
333.09 K, 10272 kPa, m1 = 2.272 | 902.05
333.1 K, 20223 kPa, m1 = 1.462 | 864.16
333.11 K, 2291 kPa, m1 = 1.462 | 848.63
333.11 K, 9932 kPa, m1 = 1.462 | 855.51
333.11 K, 29979 kPa, m1 = 1.462 | 871.75
333.12 K, 5163 kPa, m1 = 1.462 | 851.27
333.12 K, 39966 kPa, m1 = 1.462 | 878.97
333.12 K, 49993 kPa, m1 = 1.462 | 885.74
333.12 K, 59791 kPa, m1 = 1.462 | 891.94
333.12 K, 69993 kPa, m1 = 1.462 | 898.03
333.12 K, 79815 kPa, m1 = 1.462 | 903.61
333.12 K, 89925 kPa, m1 = 1.462 | 909.13
333.12 K, 100027 kPa, m1 = 1.462 | 914.48
333.13 K, 2335 kPa, m1 = 2.272 | 895.03
333.13 K, 10112 kPa, m1 = 0.5972 | 803.35
333.13 K, 79924 kPa, m1 = 0.2335 | 831.2
333.14 K, 1023 kPa, m1 = 0.2335 | 771.66
333.14 K, 1618 kPa, m1 = 3.368 | 952.85
333.14 K, 5026 kPa, m1 = 2.833 | 927.9
333.14 K, 19985 kPa, m1 = 0.2335 | 789.05
333.14 K, 40021 kPa, m1 = 2.833 | 953.59
333.14 K, 80002 kPa, m1 = 2.833 | 976.7
333.15 K, 1032 kPa, m1 = 2.833 | 924.49
333.15 K, 1267 kPa, m1 = 0.9499 | 816.76
333.15 K, 1305 kPa, m1 = 0.9499 | 816.8
333.15 K, 2100 kPa, m1 = 0.5972 | 796.01
333.15 K, 5177 kPa, m1 = 2.272 | 897.13
333.15 K, 5214 kPa, m1 = 0.9499 | 820.56
333.15 K, 5223 kPa, m1 = 0.5972 | 798.91
333.15 K, 9985 kPa, m1 = 2.833 | 931.98
333.15 K, 10026 kPa, m1 = 0.2335 | 780.15
333.15 K, 19923 kPa, m1 = 0.9499 | 833.66
333.15 K, 29942 kPa, m1 = 0.9499 | 841.73
333.15 K, 29965 kPa, m1 = 2.833 | 946.88
333.15 K, 40014 kPa, m1 = 0.9499 | 849.24
333.15 K, 49925 kPa, m1 = 2.833 | 959.77
333.15 K, 50021 kPa, m1 = 0.2335 | 812.76
333.15 K, 50078 kPa, m1 = 0.9499 | 856.2
333.15 K, 59924 kPa, m1 = 0.9499 | 862.57
333.15 K, 60012 kPa, m1 = 0.2335 | 819.01
333.15 K, 60159 kPa, m1 = 0.5972 | 841.68
333.15 K, 69784 kPa, m1 = 2.833 | 971.18
333.15 K, 69794 kPa, m1 = 0.9499 | 868.58
333.15 K, 69985 kPa, m1 = 0.2335 | 825.32
333.15 K, 79935 kPa, m1 = 0.9499 | 874.45
333.15 K, 89956 kPa, m1 = 2.833 | 981.93
333.15 K, 89965 kPa, m1 = 0.2335 | 837.01
333.15 K, 89984 kPa, m1 = 0.9499 | 880.02
333.15 K, 99907 kPa, m1 = 2.272 | 958.17
333.15 K, 99958 kPa, m1 = 0.2335 | 842.17
333.15 K, 99967 kPa, m1 = 2.833 | 987.14
333.15 K, 99986 kPa, m1 = 0.9499 | 885.41
333.16 K, 5021 kPa, m1 = 0.2335 | 775.49
333.16 K, 19968 kPa, m1 = 2.833 | 939.71
333.16 K, 20295 kPa, m1 = 0.5972 | 812.23
333.16 K, 29945 kPa, m1 = 0.2335 | 797.44
333.16 K, 29996 kPa, m1 = 0.5972 | 820.22
333.16 K, 49994 kPa, m1 = 0.5972 | 835.21
333.16 K, 59945 kPa, m1 = 2.833 | 965.67
333.16 K, 69994 kPa, m1 = 0.5972 | 847.73
333.16 K, 80063 kPa, m1 = 0.5972 | 854.04
333.16 K, 89993 kPa, m1 = 0.5972 | 859.28
333.16 K, 100035 kPa, m1 = 0.5972 | 864.08
333.17 K, 39784 kPa, m1 = 0.2335 | 805.21
333.17 K, 40191 kPa, m1 = 0.5972 | 828.11
333.17 K, 89994 kPa, m1 = 2.272 | 952.98
333.17 K, 99575 kPa, m1 = 3.368 | 1013.64
333.18 K, 19918 kPa, m1 = 3.368 | 967.06
333.18 K, 20737 kPa, m1 = 2.272 | 910.39
333.18 K, 29946 kPa, m1 = 3.368 | 974.09
333.18 K, 29993 kPa, m1 = 2.272 | 917.22
333.18 K, 39652 kPa, m1 = 3.368 | 980.47
333.18 K, 40158 kPa, m1 = 2.272 | 924.19
333.18 K, 49954 kPa, m1 = 2.272 | 930.45
333.18 K, 49993 kPa, m1 = 3.368 | 986.85
333.18 K, 59593 kPa, m1 = 3.368 | 992.46
333.18 K, 60271 kPa, m1 = 2.272 | 936.65
333.18 K, 69927 kPa, m1 = 3.368 | 998.21
333.18 K, 69979 kPa, m1 = 2.272 | 942.19
333.18 K, 79359 kPa, m1 = 2.272 | 947.33
333.18 K, 79861 kPa, m1 = 3.368 | 1003.51
333.18 K, 89946 kPa, m1 = 3.368 | 1008.74
333.19 K, 5051 kPa, m1 = 3.368 | 955.66
333.19 K, 9894 kPa, m1 = 3.368 | 959.51
348.13 K, 29954 kPa, m1 = 0.2335 | 785.62
348.13 K, 59964 kPa, m1 = 2.833 | 956.11
348.14 K, 9989 kPa, m1 = 2.833 | 920.29
348.14 K, 10032 kPa, m1 = 0.2335 | 766.83
348.14 K, 10035 kPa, m1 = 0.5972 | 790.37
348.14 K, 19956 kPa, m1 = 2.272 | 898.47
348.14 K, 19956 kPa, m1 = 3.368 | 955.83
348.14 K, 29914 kPa, m1 = 0.5972 | 809.07
348.14 K, 30021 kPa, m1 = 1.462 | 860.82
348.14 K, 39925 kPa, m1 = 2.272 | 913.47
348.14 K, 50012 kPa, m1 = 0.5972 | 824.77
348.14 K, 69957 kPa, m1 = 3.368 | 988.75
348.14 K, 79624 kPa, m1 = 2.272 | 938.32
348.14 K, 89957 kPa, m1 = 0.5972 | 850.38
348.15 K, 1002 kPa, m1 = 0.5972 | 781.38
348.15 K, 1002 kPa, m1 = 3.368 | 940.13
348.15 K, 1003 kPa, m1 = 2.272 | 881.25
348.15 K, 1024 kPa, m1 = 0.2335 | 757.55
348.15 K, 1035 kPa, m1 = 2.833 | 912.41
348.15 K, 1304 kPa, m1 = 0.9499 | 803.97
348.15 K, 2021 kPa, m1 = 1.462 | 835.77
